{
  "source": "patent US12570667B2",
  "about": "“Compounds with antibacterial and anti viral activities” (priority 2020, dated 2026)",
  "key": {"E. coli [1]": {"tested_on": "E. coli", "experiment": "Antibacterial activity by spread plate-disc diffusion method", "assay_type": "cell-based", "details": "20 μl from 1 mg/ml stock per disc, 37° C., 24 h, \"0\" indicates no antibacterial activity", "procedure": "(§1) In an embodiment, the antibacterial activity of nigericin and compounds of formula I are determined by the Disc diffusion method. […] The compounds of formula I are found to be inhibiting both gram-positive and gram-negative bacteria.\n(§2) Nigericin along with compounds of formula I were tested against Gram-positive (S. aureus) and Gram-negative (E. coli) test organisms by spread plate-disc diffusion method. 20 μl from 1 mg/ml concentration stock was used per disc for each test compound and plated were incubated at 37° C. for 24 h. After the incubation period zone of inhibition was measured."}, "S. aureus [2]": {"tested_on": "S. aureus", "experiment": "Antibacterial activity by spread plate-disc diffusion method", "assay_type": "cell-based", "details": "20 μl from 1 mg/ml stock per disc, 37° C., 24 h, \"0\" indicates no antibacterial activity", "procedure": "as §1, §2"}, "E. coli [3]": {"tested_on": "E. coli", "experiment": "Minimum inhibitory concentration by micro-dilution method", "assay_type": "cell-based", "details": "Gram-negative organism E. coli; for MIC: Escherichia coli", "procedure": "(§3) MIC determination: Minimum inhibitory concentration was determined using micro-dilution method in the 96 well plates. 20 μl from 1 mg/ml stock was mixed with culture to get 66 μg/ml concentration and serially diluted in further well to get a concentration of 33 μg/ml, 16.5 μg/ml and so on, refer FIG. 1."}, "S. aureus [4]": {"tested_on": "S. aureus", "experiment": "Minimum inhibitory concentration by micro-dilution method", "assay_type": "cell-based", "details": "Staphylococcus aureus; Gram-positive bacteria S. aureus", "procedure": "as §3"}, "[5]": {"experiment": "In-vitro toxicity, MTT assay", "assay_type": "cell-based, mouse", "details": "mouse, wild-type mouse embryonic fibroblast cells (WTMEFs), read-out: Cytotoxicity IC50; for IC50 at 2 h: 2 h treatment; for IC50 at 24 h: 24 h treatment", "procedure": "(§4) In a preferred embodiment, nigericin and compounds of formula I are tested for toxicity on Wild type mouse fibroblast cell lines using 3-(4,5-dimethylthiazol-2-yl)-2,5-diphenyltetrazolium bromide assay (MTT assay).\n(§5) Wild-type mouse fibroblast cell line (WTMEFs) was used to assess the toxicity associated with nigericin and its fluorinated analogues for the viability using 3-(4,5-dimethylthiazol-2-yl)-2,5-diphenyltetrazolium bromide assay (MTT assay). WTMEFs cell line was seeded in 96-well plates at a density of 5000 cells per well in […] DMEM media containing 10% FBS. The cell lines were incubated for 24 h in a CO2 incubator at 37° C. After 24 h, the drug was added at a concentration of […] and incubated for 2 h and 24 h. MTT assay was carried out to verify the cell viability after 2 h and 24 h of drug treatment in respective plates. All drug concentration was used in triplicate (n=3)."}, "Polio Virus": {"tested_on": "Polio Virus", "details": "read-out: effective concentration (EC50), inhibition of viral RNA synthesis; cited from earlier work"}, "[6]": {"tested_on": "Wild-type mouse fibroblast cell line (WTMEFs)", "experiment": "In-vitro toxicity, MTT assay", "assay_type": "cell-based", "details": "24 h treatment, read-out: Cytotoxicity IC50", "procedure": "as §4, §5"}},
  "note": "Where two headings read alike, the source gives them in different places.",
  "data": [
    {"molecule": "COC1C[C@@H](C[C@H]2CC[C@H](C)C([C@@H](C)C(=O)Oc3ccccc3)O2)O[C@]2(O[C@](C)(C3CC[C@@](C)(C4OC(C5O[C@@](O)(CO)[C@H](C)C[C@@H]5C)C[C@@H]4C)O3)C[C@H]2C)C1C", "note": "(stereo partly drawn) [Analog N-1, phenyl (2R)-2-((3S,6R)-6-(((2S,4R,5R,7R)-2-((2S,3′S)-5′-((3S,5R,6R)-6-hydroxy-6-(hydroxymethyl)-3,5-dimethyltetrahydro-2H-pyran-2-yl)-2,3′-dimethyloctahydro-[2,2′-bifuran]-5-yl)-9-methoxy-2,4,10-trimethyl-1,6-dioxaspiro[4.5]decan-7-yl)methyl)-3-methyltetrahydro-2H-pyran-2-yl)propanoate]", "values": [
      {"measurement": "Antibacterial activity by disc diffusion method (Zone measured in mm)", "setting": "E. coli [1]", "result": 0, "unit": "mm"},
      {"measurement": "Antibacterial activity by disc diffusion method (Zone measured in mm)", "setting": "S. aureus [2]", "result": 0, "unit": "mm"}
    ]},
    {"molecule": "COc1ccc(OC(=O)[C@H](C)C2O[C@@H](C[C@@H]3CC(OC)C(C)[C@]4(O3)O[C@](C)(C3CC[C@@](C)(C5OC(C6O[C@@](O)(CO)[C@H](C)C[C@@H]6C)C[C@@H]5C)O3)C[C@H]4C)CC[C@@H]2C)cc1", "note": "(stereo partly drawn) [Analog N-2]", "values": [
      {"measurement": "Antibacterial activity by disc diffusion method (Zone measured in mm)", "setting": "E. coli [1]", "result": 0, "unit": "mm"},
      {"measurement": "Antibacterial activity by disc diffusion method (Zone measured in mm)", "setting": "S. aureus [2]", "result": 0, "unit": "mm"}
    ]},
    {"molecule": "COC1C[C@@H](C[C@H]2CC[C@H](C)C([C@@H](C)C(=O)Nc3ccccc3F)O2)O[C@]2(O[C@](C)(C3CC[C@@](C)(C4OC(C5O[C@@](O)(CO)[C@H](C)C[C@@H]5C)C[C@@H]4C)O3)C[C@H]2C)C1C", "note": "(stereo partly drawn) [Analog N-3, (2R)—N-(2-fluorophenyl)-2-((3S,6R)-6-(((2S,4R,5R,7R)-2-((2S,3′S)-5′-((3S,5R,6R)-6-hydroxy-6-(hydroxymethyl)-3,5-dimethyltetrahydro-2H-pyran-2-yl)-2,3′-dimethyloctahydro-[2,2′-bifuran]-5-yl)-9-methoxy-2,4,10-trimethyl-1,6-dioxaspiro[4.5]decan-7-yl)methyl)-3-methyltetrahydro-2H-pyran-2-yl)propanamide]", "values": [
      {"measurement": "Antibacterial activity by disc diffusion method (Zone measured in mm)", "setting": "E. coli [1]", "result": 33, "unit": "mm"},
      {"measurement": "Antibacterial activity by disc diffusion method (Zone measured in mm)", "setting": "S. aureus [2]", "result": 31, "unit": "mm"},
      {"measurement": "MIC", "setting": "E. coli [3]", "result": 0.3, "unit": "µM"},
      {"measurement": "MIC", "setting": "S. aureus [4]", "result": 2.5, "unit": "µM"},
      {"measurement": "IC50 at 2 h", "setting": "[5]", "result": "> 0.1", "unit": "mM"},
      {"measurement": "IC50 at 2 h", "setting": "[5]; unit mM", "result": "> 0.1", "unit": "mM"},
      {"measurement": "IC50 at 24 h", "setting": "[5]", "result": 0.0669, "unit": "mM"},
      {"measurement": "IC50 at 24 h", "setting": "[5]; unit mM", "result": 0.0669, "unit": "mM"}
    ]},
    {"molecule": "COC1C[C@@H](C[C@H]2CC[C@H](C)C([C@@H](C)C(=O)Nc3ccc(F)cc3)O2)O[C@]2(O[C@](C)(C3CC[C@@](C)(C4OC(C5O[C@@](O)(CO)[C@H](C)C[C@@H]5C)C[C@@H]4C)O3)C[C@H]2C)C1C", "note": "(stereo partly drawn) [Analog N-5]", "values": [
      {"measurement": "Antibacterial activity by disc diffusion method (Zone measured in mm)", "setting": "E. coli [1]", "result": 30, "unit": "mm"},
      {"measurement": "Antibacterial activity by disc diffusion method (Zone measured in mm)", "setting": "S. aureus [2]", "result": 23, "unit": "mm"},
      {"measurement": "MIC", "setting": "E. coli [3]", "result": 0.3, "unit": "µM"},
      {"measurement": "MIC", "setting": "S. aureus [4]", "result": 5, "unit": "µM"},
      {"measurement": "IC50 at 2 h", "setting": "[5]", "result": "> 0.1", "unit": "mM"},
      {"measurement": "IC50 at 2 h", "setting": "[5]; unit mM", "result": "> 0.1", "unit": "mM"},
      {"measurement": "IC50 at 24 h", "setting": "[5]", "result": 0.0598, "unit": "mM"},
      {"measurement": "IC50 at 24 h", "setting": "[5]; unit mM", "result": 0.0598, "unit": "mM"}
    ]},
    {"molecule": "CO[C@@H]1C[C@@H](C[C@H]2CC[C@H](C)[C@H]([C@@H](C)C(=O)O)O2)O[C@]2(O[C@](C)([C@H]3CC[C@@](C)([C@@H]4O[C@@H]([C@H]5O[C@@](O)(CO)[C@H](C)C[C@@H]5C)C[C@@H]4C)O3)C[C@H]2C)[C@@H]1C", "note": "[Nigericin, reference compound]", "values": [
      {"measurement": "Antibacterial activity by disc diffusion method (Zone measured in mm)", "setting": "E. coli [1]", "result": 0, "unit": "mm"},
      {"measurement": "Antibacterial activity by disc diffusion method (Zone measured in mm)", "setting": "S. aureus [2]", "result": 22, "unit": "mm"},
      {"measurement": "EC50", "setting": "Polio Virus", "result": "~1", "unit": "µM"},
      {"measurement": "Minimum inhibitory concentration (MIC)", "setting": "E. coli [3]", "result": "did not show any inhibition"},
      {"measurement": "MIC", "setting": "S. aureus [4]", "result": 0.3, "unit": "µM"},
      {"measurement": "IC50", "setting": "[6]", "result": 9.22, "unit": "µM"},
      {"measurement": "IC50 at 2 h", "setting": "[5]", "result": "~0.01", "unit": "mM"},
      {"measurement": "IC50 at 2 h", "setting": "[5]; unit mM", "result": "~0.01", "unit": "mM"},
      {"measurement": "IC50 at 24 h", "setting": "[5]", "result": "~0.01", "unit": "mM"},
      {"measurement": "IC50 at 24 h", "setting": "[5]; unit mM", "result": "~0.01", "unit": "mM"}
    ]}
  ]
}
